This passage reports GI50 results from US8242125B2, “Heterobicyclic carboxamides as inhibitors for kinases” (Novartis AG, priority 2008, dated 2012).

The test deals with T1, Ba/F3-Tel-KDR cells (Homo sapiens, UniProt P35968).
T1 construct: fused on or other part: N-terminal oligomerising part of TEL (ETV6) fused to the tyrosine kinase domain of KDR; P41212 (Transcription factor ETV6)
T1 sequence (P35968 whole entry, change not shown, the tested form may be a part): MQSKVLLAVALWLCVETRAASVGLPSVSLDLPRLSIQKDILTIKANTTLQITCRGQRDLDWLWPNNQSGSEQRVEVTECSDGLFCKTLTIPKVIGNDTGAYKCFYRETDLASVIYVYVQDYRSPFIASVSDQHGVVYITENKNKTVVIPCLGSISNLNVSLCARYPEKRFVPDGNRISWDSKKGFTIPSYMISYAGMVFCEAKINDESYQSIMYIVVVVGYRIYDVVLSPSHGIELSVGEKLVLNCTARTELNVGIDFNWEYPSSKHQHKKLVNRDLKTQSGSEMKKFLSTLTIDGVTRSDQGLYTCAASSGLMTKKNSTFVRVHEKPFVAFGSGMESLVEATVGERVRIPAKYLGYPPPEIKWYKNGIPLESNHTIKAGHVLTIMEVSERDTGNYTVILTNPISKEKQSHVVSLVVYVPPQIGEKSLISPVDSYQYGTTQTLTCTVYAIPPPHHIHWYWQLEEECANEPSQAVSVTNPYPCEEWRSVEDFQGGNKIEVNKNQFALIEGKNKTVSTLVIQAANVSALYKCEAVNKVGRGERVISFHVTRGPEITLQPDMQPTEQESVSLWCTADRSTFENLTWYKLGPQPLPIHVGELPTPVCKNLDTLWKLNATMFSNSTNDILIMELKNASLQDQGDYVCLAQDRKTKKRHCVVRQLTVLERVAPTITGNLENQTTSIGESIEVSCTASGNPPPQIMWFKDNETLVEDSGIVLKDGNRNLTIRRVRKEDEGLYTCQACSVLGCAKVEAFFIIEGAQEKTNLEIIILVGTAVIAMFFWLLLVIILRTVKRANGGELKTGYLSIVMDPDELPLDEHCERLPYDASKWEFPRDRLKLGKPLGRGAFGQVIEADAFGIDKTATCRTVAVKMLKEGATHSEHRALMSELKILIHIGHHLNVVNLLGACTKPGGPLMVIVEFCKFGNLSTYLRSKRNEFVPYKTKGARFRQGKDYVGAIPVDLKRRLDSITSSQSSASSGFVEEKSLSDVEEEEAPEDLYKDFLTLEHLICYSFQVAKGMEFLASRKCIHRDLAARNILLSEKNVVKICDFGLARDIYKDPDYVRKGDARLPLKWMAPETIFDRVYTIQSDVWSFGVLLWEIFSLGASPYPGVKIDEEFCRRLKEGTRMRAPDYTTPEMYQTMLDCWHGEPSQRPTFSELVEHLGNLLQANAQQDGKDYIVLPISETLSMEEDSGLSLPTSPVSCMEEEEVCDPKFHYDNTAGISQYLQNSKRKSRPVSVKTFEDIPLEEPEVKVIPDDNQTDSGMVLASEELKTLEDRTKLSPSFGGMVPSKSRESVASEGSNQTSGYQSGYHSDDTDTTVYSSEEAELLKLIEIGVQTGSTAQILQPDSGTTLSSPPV
Description: Ba/F3-Tel-KDR cell viability inhibition assay (CellTiter-Glo). It counts as cell-based. The settings on record: 48 hour incubation, read-out: IC50 (the source's name). The text has this: This assay is a cell-based assay to measure the compound-mediated suppression of Ba/F3 cell proliferation and viability using the Luciferase bioluminescent assay commercially known as CellTiter-Glo™. In this case, a specifically modified cell line, Ba/F3-Tel-KDR is used. These cells are engineered such that intact signaling through the tyrosine kinase domain of KDR is critical for their survival. Inhibition of KDR signaling results in cell death which is quantitated using a cell viability assay. This is a homogeneous bioluminescent assay that yields a rapid, simple and sensitive determination of the number of viable cells in culture by generation of a luminescent signal proportional to the amount of ATP present in cells. KDR inhibitor compound dilutions are incubated with Ba/F3-Tel-KDR cells over a 48 hour period and the resulting cell viability is measured with a suitable luminometer.
This assay is performed in Ba/F3-Tel-KDR cells. Cells are cultured at 37° C. […] Medium is changed the day before the experiment. On Day 1, cells are plated into white solid bottom 384-well plates at 5000 cells/well in 25 μl culture medium. A ten-point dose response curve is prepared as follows: compounds are first serially diluted 3-fold in 100% DMSO, starting from 10 mM. […] 5 μl of diluted compound is added to cell plates with 25 μl culture medium. […] The final concentration of DMSO is 0.1%. Wells without or with cells plus 0.1% DMSO serve as controls. On Day 3, Lyophilized CellTiter-Glo buffer and substrate and the cell plates are first equilibrated to room temperature. Substrate is reconstituted in buffer and 30 μl reconstituted substrate is added to each well. After incubation for 10 minutes at room temperature, plates are read in a luminometer. Compounds are tested in a 10-point dose response and each concentration is run in triplicate on a given plate. Each plate is run in duplicate.
Background: ATP-based viability assays read luminescence as a measure of living cells.
As for `CNC(=O)C1Cc2c(ncnc2Oc2ccc3c(ccn3C(=O)Nc3cc(C4CC4)on3)c2)CN1` (racemic) [Example 148-G, (±)-4-[1-(5-Cyclopropyl-isoxazol-3-ylcarbamoyl)-1H-indol-5-yloxy]-5,6,7,8-tetrahydro-pyrido[3,4-d]pyrimidine-6-carboxylic acid methylamide], the GI50 came out at 88 nM. For `CC(=O)N1CC2C[C@H]1CN2Cc1cc(Oc2ccc3c(ccn3C(=O)Nc3cccc(C(F)(F)F)c3)c2)ncn1` (stereo in doubt) [Example 98-B, 5-[6-((1R,4S)-5-Acetyl-2,5-diaza-bicyclo[2.2.1]hept-2-ylmethyl)-pyrimidin-4-yloxy]-indole-1-carboxylic acid (3-trifluoromethyl-phenyl)-amide], the GI50 was less than 1 nM. For `CNCc1cc(Oc2ccc3c(cc(C)n3C(=O)Nc3cccc(C(F)(F)F)c3)c2F)ncn1` [Example 19-AP] the value was 430 nM; for `O=C(Nc1cccc(C(F)(F)F)c1)n1ccc2cc(Oc3cc(CN4CCCC4)ncn3)ccc21` [Example 19-K], 222 nM. For `O=C(Nc1ccc(F)c(C(F)(F)F)c1)n1ccc2cc(Oc3cc(CNC4CC4)ncn3)ccc21` [Example 19-Y] the value was 23 nM; for `COCc1cc(Oc2ccc3c(ccn3C(=O)Nc3ccc(F)c(C(F)(F)F)c3)c2)ncn1` [Example 20-C], 6 nM.

Turning to `O=C(Nc1cccc(C(F)(F)F)c1)n1ccc2cc(Oc3ccnc(CO)c3)ccc21` [Example 25-D, 5-(2-Hydroxymethyl-pyridin-4-yloxy)-indole-1-carboxylic acid (3-trifluoromethylphenyl)-amide], the GI50 stood at 3 nM. For `O=C(Nc1ccc(F)c(C(F)(F)F)c1)n1ccc2cc(Oc3cc(Cn4ncnn4)ncn3)ccc21` [Example 27-A] the value was 5 nM; for `Cc1nnn(Cc2cc(Oc3ccc4c(ccn4C(=O)Nc4ccc(F)c(C(F)(F)F)c4)c3)ncn2)n1` [Example 27-I], less than 1 nM. Then `CNC(=O)c1cc(Oc2ccc3c(ccn3C(=O)Nc3cccc(C(F)(F)F)c3)c2)ccn1` [Example 28-B, 5-(2-Methylcarbamoyl-pyridin-4-yloxy)-indole-1-carboxylic acid (3-trifluoromethyl-phenyl)-amide], with 11 nM.

As for `O=C(Nc1ccc(F)c(C(F)(F)F)c1)n1ccc2cc(Oc3ncnc4c3CCNC4)ccc21` [Example 33-D], the GI50 is 189 nM. For `O=C(Nc1cccc(C(F)(F)F)c1)n1ccc2c(F)c(Oc3ncnc4c3CCNC4)ccc21` [Example 33-E] the value was 9 nM; for `O=C(Nc1cc(F)cc(C(F)(F)F)c1)n1ccc2cc(Oc3ncnc4c3CCNC4)ccc21` [Example 33-H], 330 nM; for `Cc1cc2cc(Oc3ncnc4c3CCNC4)ccc2n1C(=O)Nc1cccc(C(F)(F)F)c1` [Example 33-L], 87 nM.

As for `CS(=O)(=O)N1CCc2c(ncnc2Oc2ccc3c(ccn3C(=O)Nc3cccc(C(F)(F)F)c3)c2)C1` [Example 35, 5-(7-Methanesulfonyl-5,6,7,8-tetrahydro-pyrido[3,4-d]pyrimidin-4-yloxy)-indole-1-carboxylic acid (3-trifluoromethyl-phenyl)-amide], the GI50 worked out at 13 nM.

For `CS(=O)(=O)NC1CCN(Cc2cc(Oc3ccc4c(ccn4C(=O)Nc4cccc(C(F)(F)F)c4)c3)ncn2)CC1` [Example 39, 5-[6-(4-Methanesulfonylamino-piperidin-1-ylmethyl)-pyrimidin-4-yloxy]-indole-1-carboxylic acid (3-trifluoromethyl-phenyl)-amide], the GI50 came out at 2 nM. For `CCN(CC)CCC(=O)N1CCc2c(ncnc2Oc2ccc3c(ccn3C(=O)Nc3cccc(C(F)(F)F)c3)c2)C1` [Example 40, 5-[7-(3-Diethylamino-propionyl)-5,6,7,8-tetrahydro-pyrido[3,4-d]pyrimidin-4-yloxy]-indole-1-carboxylic acid (3-trifluoromethyl-phenyl)-amide] the value was 13 nM. Then `O=C(Nc1cccc(C(F)(F)F)c1F)n1ccc2cc(Oc3ncnc4c3CNC4)ccc21` [Example 45-G], with 3 nM. Then `CC(C)(CO)c1cc(NC(=O)n2ccc3cc(Oc4ncnc5c4CCNC5)ccc32)[nH]n1` [Example 49-B, 5-(5,6,7,8-Tetrahydro-pyrido[3,4-d]pyrimidin-4-yloxy)-indole-1-carboxylic acid [5-(2-hydroxy-1,1-dimethyl-ethyl)-2H-pyrazol-3-yl]-amide], with 22 nM. Turning to `O=C(Nc1cc(-c2ccccc2)[nH]n1)n1ccc2cc(Oc3ncnc4c3CCNC4)ccc21` [Example 51-D], the GI50 was 11 nM. Then `C[C@H]1Cc2c(ncnc2Oc2ccc3c(ccn3C(=O)Nc3cc(C4(C)CC4)n[nH]3)c2F)CN1` [Example 54-H], with 1 nM; and `C[C@@H]1Cc2c(ncnc2Oc2ccc3c(ccn3C(=O)Nc3cc(C4(C)CC4)n[nH]3)c2F)CN1` [Example 54-I], with less than 1 nM. For `C[C@H]1Cc2c(ncnc2Oc2ccc3c(ccn3C(=O)Nc3ccn(C(C)(C)C)n3)c2)CN1` [Example 54-V] the value was 63 nM; for `O=C(Nc1cncc(C(F)(F)F)c1)n1ccc2cc(Oc3ncnc4c3CCNC4)ccc21` [Example 55-B, 5-(5,6,7,8-Tetrahydro-pyrido[3,4-d]pyrimidin-4-yloxy)-indole-1-carboxylic acid (5-trifluoromethyl-pyridin-3-yl)-amide], 107 nM; for `Cc1cc2cc(Oc3ncnc4c3CNC4)ccc2n1C(=O)Nc1cc(C(C)(C)C)on1` [Example 57-C, 5-(6,7-dihydro-5H-pyrrolo[3,4-d]pyrimidin-4-yloxy)-2-methyl-indole-1-carboxylic acid (5-tert-butyl-isoxazol-3-yl)-amide], less than 1 nM.

On to `CC(C)Cc1cc(NC(=O)n2ccc3cc(Oc4ncnc5c4CNC5)ccc32)no1` [Example 57-N, 5-(6,7-dihydro-5H-pyrrolo[3,4-d]pyrimidin-4-yloxy)-indole-1-carboxylic acid (5-isobutyl-isoxazol-3-yl)-amide], for which the GI50 worked out at 91 nM. Regarding `CNCc1cc(Oc2ccc3c(ccn3C(=O)Nc3cc(C(C)(C)C)[nH]n3)c2)ncn1` [Example 59-B, 5-(6-Methylaminomethyl-pyrimidin-4-yloxy)-indole-1-carboxylic acid (5-tert-butyl-2H-pyrazol-3-yl)-amide], the GI50 is 4 nM. Then `CNCc1cc(Oc2ccc3c(ccn3C(=O)Nc3cc(C(F)(F)F)[nH]n3)c2F)ncn1` [Example 59-C, 4-Fluoro-5-(6-methylaminomethyl-pyrimidin-4-yloxy)-indole-1-carboxylic acid (5-trifluoromethyl-1H-pyrazol-3-yl)-amide], with 114 nM. For the molecule `CN1Cc2ncnc(Oc3ccc4c(ccn4C(=O)Nc4cccc(C(F)(F)F)c4)c3)c2C1` [Example 63-A, 5-(6-methyl-6,7-dihydro-5H-pyrrolo[3,4-d]pyrimidin-4-yloxy)-indole-1-carboxylic acid (3-trifluoromethyl-phenyl)-amide], the GI50 is 8 nM. Then `O=C(Nc1cccc(C(F)(F)F)c1)n1ccc2cc(Oc3ncnc4c3CN(CCO)C4)ccc21` [Example 64-A, 5-[6-(2-Hydroxy-ethyl)-6,7-dihydro-5H-pyrrolo[3,4-d]pyrimidin-4-yloxy]-indole-1-carboxylic acid (3-trifluoromethyl-phenyl)-amide], with 8 nM; and `O=C(Nc1cccc(C(F)(F)F)c1)N1CCc2cc(Oc3cc(CN4CCOCC4)ncn3)ccc21` [Example 68-F], with 8 nM. In the case of `O=C(Nc1cccc(C(F)(F)F)c1)n1ccc2cc(Oc3ccnc(CCN4CCOCC4)n3)ccc21` [Example 73-D, 5-(2-(2-morpholinoethyl)pyrimidin-4-yloxy)-N-(3-(trifluoromethyl)phenyl)-1H-indole-1-carboxamide], the GI50 was determined as 9 nM.

For `CNCc1cc(Oc2ccc3c(ccn3C(=O)Nc3ccc(OC)c(C(F)(F)F)c3)c2)ncn1` [Example 76-E, N-(4-methoxy-3-(trifluoromethyl)phenyl)-5-(6-((methylamino)methyl)pyrimidin-4-yloxy)-1H-indole-1-carboxamide], the GI50 was less than 1 nM. Then `CS(=O)(=O)Cc1cc(Oc2ccc3c(ccn3C(=O)Nc3ccc(F)c(C(F)(F)F)c3)c2)ncn1` [Example 86-A, N-(4-fluoro-3-(trifluoromethyl)phenyl)-5-(6-(methylsulfonylmethyl)pyrimidin-4-yloxy)-1H-indole-1-carboxamide], with less than 1 nM. On to `CS(=O)(=O)Cc1cc(Oc2ccc3c(ccn3C(=O)Nc3cccc(C(F)(F)F)c3)c2F)ncn1` [Example 87-E, 4-Fluoro-5-(6-methanesulfonylmethyl-pyrimidin-4-yloxy)-indole-1-carboxylic acid (3-trifluoromethyl-phenyl)-amide], for which the GI50 was found to be 7 nM.
